For one series, the system named is mouse. The series is described as follows: Acute toxicity in the mouse. It is filed as in vivo, mouse (Swiss female). Particulars: for loss of weight on the 4th day: i.p. The procedure: Acute toxicity, one single injection of the compound, was measured using Swiss female mice (Evic-Ceba, Bordeaux) of 21 to 23 g. and Sprague-Dawley rats. Ten animals were treated for each dose studied.

For the next series, the system named is leukemia L 1210. The series is described as follows: Anti-tumour activity, leukemia L 1210, i.p. graft, i.p. treatment. The procedure:
[…] females (CNRS, Orleans) of 20 to 22 g
(a) i.p. graft--i.p. treatment
10^5 cells were grafted intraperitoneally on D0 and intraperitoneal treatment was carried out 24 hours later, D1, in one single injection.
PHD and PHM were suspended in a 4% Klucel (hydroxy propyl cellulose) solution (the word "Klucel" is a registered trademark of Hercules Incorporated, Delaware, U.S.A.).
The solutions of these compounds were prepared extemporaneously. The increase in life span, ILS (%), were calculated in comparison with the controls by the following formula: [formula] Deaths were recorded until day 30 for L 1210 tumour and until day 60 for S180 tumour.

Results on 1 compound are retold here after patent US4452812A, “Organic complex of platinum, its preparation and its use for treating malignant tumors” (Sanofi, priority 1980, dated 1984).

Molecules are shown by their SMILES. Entries after “also recorded” stand apart in the source; their conditions may differ.

In the case of `NC1CCCCC1N.O=C([O-])CC(C(=O)[O-])C([O-])C(=O)[O-].[H+].[H+].[Pt+2]` (stereo not drawn) [PHIC, cis-isocitrato (1,2-diaminocyclohexane) platinum (II)], the entries for the “loss of weight on the 4th day” value in the series on mouse (LD10 dose) and in the series with mouse (LD50 dose) were 3.5 g and 4.3 g, respectively. Also, in the series with mouse (mice), the “toxicity (in words)” value is given as “Extremely low toxicity”. The LD10 was found to be 135 mg/kg with mouse (mouse, I.P.) and 348 mg/kg with mouse (mouse, I.V.). Moreover, the LD50 in the series on mouse (mouse, I.P.) was 236 mg/kg; in the series on mouse (mouse, I.V.), 421 mg/kg; in the series with mouse (mouse, P.O.), > 1 000 mg/Kg. Further, the LD90 in the series with mouse (mouse, I.P.) is 365 mg/kg; with mouse (mouse, I.V.), 489 mg/kg. Moreover, the “LD10 (dose killing 10% of the animals)” value with mouse (mouse, one single injection, Table V) came out at 153 mg/kg. The ILS in the series on leukemia L 1210 (5 mg/kg, single i.p. on D1) is on record as 16%; with leukemia L 1210 (10 mg/kg, single i.p. on D1), 40%; in the series with leukemia L 1210 (25 mg/kg, single i.p. on D1), 59%; in the series with leukemia L 1210 (50 mg/kg, single i.p. on D1), 79%; in the series on leukemia L 1210 (100 mg/kg, single injection on D1), 129%. In addition, the toxic death result in the series on leukemia L 1210 (100 mg/kg i.p., excluded from ILS calculation) is on record as “one toxic death”. Moreover, the Survivals in the series on leukemia L 1210 (L 1210, 5 mg/kg i.p. on D1, day 30) turned out to be 0%; in the series on leukemia L 1210 (L 1210, 10 mg/kg i.p. on D1, day 30), 0%; in the series with leukemia L 1210 (L 1210, 25 mg/kg i.p. on D1, day 30), 0%; with leukemia L 1210 (L 1210, 50 mg/kg i.p. on D1, day 30), 0%; with leukemia L 1210 (L 1210, 100 mg/kg i.p. on D1, day 30) it was 20%. Further, the “anti-tumour activity (in words)” value in the series with leukemia L 1210 (leukemia L 1210) is given as “Very marked anti-tumor activity; also recorded: exerts the anti-tumour activity”. Further, in the series on leukemia L 1210 (summary for L 1210 and S 180), the “Surviving animals having received L 1210 leukaemia and S 180 sarcoma” value is “Yes”.

Usually LD50 stands for the dose expected to kill half of the subjects tested. The ILS is how much longer treated animals lived than controls. A low value points to little gain in survival.
